Data set [1] has as its system P. falciparum male/female gamete formation. Description: P. falciparum male/female gamete formation. In kind it is cell-based. Conditions: Plasmodium falciparum.
Method: Thi s i s bas ed on methods previ ousl y reported (14). Mature P. falciparum stage V gametocytes (NF54)
were incubated with test compound for 24 h at 3 7°C i n 384-well plates containing complete culture
medi um (RPMI 1640, 25 mM HEPES, 2 g/l D-glucose, 2 g/l sodium bicarbonate, 50 mg/l
Gametogenesis was triggered by dis pens i ng 10 µl ookinete medium (RPMI 1640, 25 mM HEPES, 2 g/l
D-glucose, 2 g/l sodium bicarbonate, 50 mg/l hy pox ant hi ne, 100 µM xanthurenic acid) also
contai ni ng 2. 7 µg/ml anti-Pfs25-Cy3 into each well and cooling the plate on a metal block at 4 °C fo r
4 mi n. Fi fteen s l ater male gametogenesis was recorded by b ri ghtfi el d i magi ng usi ng ti m e s 6 object i v e
and then the pl ate stored at 2 6 °C for a fu rther 24 h to allow female gametes to develop. Female
gamete formation was assessed by fluorescence m icroscopy using x6 objective to identify anti-Pfs25-
gentian violet negative and positive controls.
3.1 3 Act iv it y a gains t Cry pt os pori diu m h omi nis (CALIBR)
Thi s i s bas ed on methods previ ousl y reported (10).
Data set [2] in a line: Hepatocyte stability, human. In kind it is in vitro ADME. As to the method: SUPPLEMENTARY INFORMATION where V (ml/mg protein) is the incubation volume/mg protein added (0.5) and microsomal protein yield is taken as being 52.5 mg protein per g liver. Verapami l (0. 5 µ M ) w as us ed as a pos i t i v e cont rol to confirm ac ceptable assay performance. Ex peri ments were performed us i ng a s i ngl e ti me-cours e […]
4.5 He pat ocy t e s t abilit y
Cryopreserved hepatocytes were used to take non-CYP mediated Phase I and Phase II enzymes into […]
than those determined using li v e r mi crosomes or other subcellular liver fractions and could be mo re predi ct i v e of a met abol i c rat e det ermi ned in vivo.
Cryopreserved mouse (batch MC539) and huma n (batch HU E50H) hepatocytes were supplied by ThermoFi sher Sci enti fi c, Pai sl ey, UK and Xenotech, LLC, respectively. Cryopreserved hepatocytes were rapidly thawed in a pre-heat ed w at er bat h at 37 °C before ad di ng to 50 ml of pre-warmed CHRM medi a (ThermoFi sher Sci enti fi c, Paisley, UK) and mi xed gentl y. […] […] 5 mi l li on v i abl e cel l s /ml i n s uppl emented W ME. Onl y s us pens i ons whi ch ac hi ev ed >80% pos t-thaw viability were us ed i n ex peri ment s . […]
DMSO and 0.25 million cells/ml. […]

Data set [3] can be described thus: In vivo pharmacokinetics in mouse. From the text:
5. In vi vo pharmacokinetic and efficacy studies
5.1 In viv o ph armacokinetics (Dundee)
The l ev el of each comp ound i n mouse bl ood was determi ned by UPLC -MS/MS as previously re port e d (18). Pharmacokinetic parameters were derived from the blood c oncent ration time curve usi ng PKsol uti ons software v 2.0 (Summi t Research Servi ces, USA). […]

Data set [4] deals with Nluc-expressing transgenic C. parvum. The experiment in a line: Anti-Cryptosporidium in vivo efficacy in IFN-γ-knockout mice (Nluc C. parvum). Also on record: species or system mouse. As to conditions: 20 mg/kg orally once a day for 7 d. As to the method:
INF-γ–knockout mice ([28], [29]) were infected orally with Nluc-expressing transgenic C. parvum oocysts. Treatment started upon patency 4 d postinfection (p.i.), and mice were treated orally once a day for 7 d. Infection was monitored daily by luciferase measurements in pooled feces of the entire cage. Mice were followed for 3 wk after completion of drug treatment. […] NOD SCID gamma mice were infected with C. parvum oocysts ([26]). Treatment started 7 d p.i., and mice were treated orally once a day for 7 d. The study was run with four mice per cage; infection was monitored by quantitative PCR on day eight for individual mice, and data are shown as oocysts per milligram of feces. […]
Data analysis was performed using GraphPad Prism 7.0 (GraphPad S oftware), Excel 2016 (Microsoft ) and R free so ftware (https://www.r-project.org) for data pl otti ng and s tati s ti cal model li ng. […]
5. 4 M eas urement of a nt i-Cryptosporidium in vivo efficacy in IFN-γ-knockout mice (Georgia) The Nl uc-C. parvum IFN-γ-knockout (IFN-γ KO) m ouse in vivo experiments were run in acco rdance with the publ i s hed method (22). Briefly, female C57BL/ 6 IFN-γ KO mi ce, aged 6–8 weeks were infected with 10,000 C. parvum UG A1 Nl uc (Vi naya k et al 2015, Natu re) tra ns g eni c oocys ts . […]

Consider one compound from paper PMC6452685, “Lysyl-tRNA synthetase as a drug target in malaria and cryptosporidiosis” (Proceedings of the National Academy of Sciences of the …, 2019).

Structures are written as SMILES.

`O=C(NCC1(O)CCC(F)(F)CC1)c1cc(=O)c2cc(F)ccc2o1` [Compound 5]: the EC50 – broadly, the concentration needed to bring the measured effect to its halfway point – in data set [1] is more than 1 µM. The “Hepatocyte stability CLint” value in data set [2] is listed as 0.5 (mouse), <0.5 (human) mL⋅min^−1⋅g^−1. In data set [3] (after oral dosing), the “compound present in mouse stools” value is on record as 17 % of oral dose. Further, the AUC(0-t) in data set [3] (female, BALB/c, whole blood, po, orally, 10 mg/kg, read-out: Mouse PK orally AUC0–1440) lay within 21700 to 50000 ng·h/mL. Also, the Cmax (as a rule, the highest concentration seen after dosing) in data set [3] (female, BALB/c, whole blood, po, orally, 10 mg/kg, read-out: Mouse PK orally Cmax) amounted to 5400 ng/mL. The bioavailability (commonly the share of a dose that reaches the circulation, judged against a reference dose that is usually intravenous) in data set [3] (female, BALB/c, whole blood, po, orally, 10 mg/kg, read-out: Mouse PK orally F% (oral bioavailability)) is 100%. In addition, in data set [3] (female, BALB/c, whole blood, po, orally, 10 mg/kg, read-out: Mouse PK orally Tmax), the Tmax (as a rule, the time from dosing to the highest level) was 2 h. Besides, the AUC (usually concentration integrated over time) in data set [3] (female, Balb/c, whole blood, iv, intravenously, 3 mg/kg, read-out: Mouse PK intravenously AUC (converted)) was 14800 ng·h/mL. In addition, in data set [3] (female, Balb/c, whole blood, iv, intravenously, 3 mg/kg, read-out: Mouse PK intravenously T1/2 (converted)), the half-life was 2.5 h. In data set [3] (female, Balb/c, whole blood, iv, intravenously, 3 mg/kg, read-out: Mouse PK intravenously Vdss), the Vd was 1 L/kg. The “Mouse PK intravenously Clb” value in data set [3] (intravenously, 3 mg/kg) was 3.4 mL⋅min^−1⋅kg^−1. For the same compound, the “Mouse PK orally F% (oral bioavailability)” value in data set [3] (orally, 10 mg/kg) is “completely bioavailable”. The parasite shedding entry in data set [4] (INF-γ–knockout mice) was “below detection level”. For the same compound, the “reduction in parasite levels compared with control” value in data set [4] (INF-γ–knockout mouse, day 8) is recorded as 10,000 fold.
